Data as given in patent US8492391B2, “Substituted 6-(2-hydroxybenzylamino)purine derivatives, their use as medicaments and compositions containing these derivatives” (Univerzita Palackeho V Olomouci, priority 2009, dated 2013).

Legend:
p53 in RPMI-8226 cells = assay: Immunoblotting in RPMI-8226 cells with temperature-sensitive p53 (E285K) at permissive and restrictive temperature; assay type: cell-based, human
Description: For immunoblotting, cell were detached with rubber policeman and washed three times with ice-cold PBS and lysed in buffer (50 mM Tris, pH 7.4, 250 mM NaCl, 5 mM EDTA, 50 mM NaF, 1 mM Na3VO4, 1% Nonidet P40) containing mixture of protease and phosphatase inhibitors (Sigma-Aldrich, USA). 20 μg of total proteins were separated by SDS-polyacrylamide gel electrophoresis (SDS-PAGE) and transferred onto nitrocellulose membranes. Membranes were blocked in 5% milk and 0.1% Tween 20 in PBS and probed overnight with specific monoclonal antibodies or rabbit polyclonal sera. […] All primary antibodies were diluted in PBS containing 5% powdered milk; 0.1% Tween 20. Peroxidase conjugated rabbit anti-mouse immunoglobulin or porcine anti-rabbit immunoglobulin antisera (DAKO, Denmark) were used as the secondary antibodies and visualised with ECL reagents (Amersham-Pharmacia, Little Chalfont, UK).
Then, we also determined effect of the compounds on the cell lines expressing some temperature-sensitive mutants of p53. For example, in BT474 and RPMI-8226 cells bearing temperature-sensitive mutant of p53 (E285K), p53 protein switches between mutant and wild-type conformation in a temperature-dependent manner. At restrictive (37° C.) temperature mutated p53 protein is expressed, while after shift to a permissive (30° C.) temperature p53 is folded correctly and functional. To analyze the functional involvement of p53 in the efficiency of the treatment with the compounds, we cultivated RPMI-8226 cells independently at two different temperatures (restrictive or permissive), and exposed them to increasing doses of selected compounds. The cell lysates were prepared and the levels of cell cycle regulators were analysed by immunoblotting.

[1] = tested on: K562 (human chronic myelogenous leukaemia); assay: Calcein AM cytotoxicity assay, K562; assay type: cell-based; details: Homo sapiens, read-out: Cytotoxic activity IC50 (μM) K562
From the text: (§1) Cytotoxicity of the compounds is the major property determining their anticancer effect in vivo. One of the parameters used, as the basis for cytotoxicity assays, is the metabolic activity of viable cells. For example, a microtiter assay, which uses the Calcein AM, is now widely used to quantitate cell proliferation and cytotoxicity. For instance, this assay is used in drug screening programs and in chemosensitivity testing. Because only metabolically active cells cleave Calcein AM, these assays detect viable cells exclusively. The quantity of cleaved Calcein AM corresponds to the number of vital cells in the culture. We have been using the following cell lines: MCF7 (human breast adenocarcinoma), K562 (human chronic myelogenous leukaemia), HOS (human osteogenic sarcoma), HeLa (human cervical carcinoma), HL 60 (human promyelocytic leukaemia), G 361 (human malignant melanoma), CEM (human lymphoblastoid leukaemia). All cell lines were grown in DMEM medium (Gibco BRL) supplemented with 10% (v/v) fetal bovine serum and L-glutamine and maintained at 37° C. in a humidified atmosphere with 5% CO2. For cytotoxicity assays, 10^4 cells were seeded into each well of 96 well plate, allowed to stabilize for at least 2 h and then tested compounds were added at various concentrations ranging from 100 to 0.1 μM in triplicates. Three days after drug addition Calcein AM solution (Molecular Probes) was added and let to enter the cells for 1 hour. Fluorescence of viable cells was quantified using Fluoroskan Ascent (Microsystems).

[2] = tested on: p53, p21^WAF1, Mcl-1 in MCF-7 cells; assay: Immunoblotting of p53, p21WAF1 and Mcl-1 in MCF-7 cells; assay type: cell-based, human
Description: For immunoblotting, cell were detached with rubber policeman and washed three times with ice-cold PBS and lysed in buffer (50 mM Tris, pH 7.4, 250 mM NaCl, 5 mM EDTA, 50 mM NaF, 1 mM Na3VO4, 1% Nonidet P40) containing mixture of protease and phosphatase inhibitors (Sigma-Aldrich, USA). 20 μg of total proteins were separated by SDS-polyacrylamide gel electrophoresis (SDS-PAGE) and transferred onto nitrocellulose membranes. Membranes were blocked in 5% milk and 0.1% Tween 20 in PBS and probed overnight with specific monoclonal antibodies or rabbit polyclonal sera. Primary antibodies specific for p53 (DO-1, in house), p21^WAF1 (118, in house), PARP-1 (2C10, Sigma-Aldrich St Louis, Mo., USA), Mcl-1 (S-19, Santa Cruz, USA), all used at 1 μg/ml. All primary antibodies were diluted in PBS containing 5% powdered milk; 0.1% Tween 20. Peroxidase conjugated rabbit anti-mouse immunoglobulin or porcine anti-rabbit immunoglobulin antisera (DAKO, Denmark) were used as the secondary antibodies and visualised with ECL reagents (Amersham-Pharmacia, Little Chalfont, UK).
The induction of p53 protein was apparent in 4 hrs but enhanced level of p21^WAF1 protein was observed only 12 hours after treatment with compound 128 (FIG. 5). The periods of time 12 and 24 hrs were chosen, since the level of protein expression reached a steady state.

CDK2/cyclin E = target: T1, CDK2/cyclin E (Homo sapiens, UniProt P24941); assay: CDK2/cyclin E kinase inhibition assay; assay type: biochemical
T1 construct: made in house; host or cells: Sf9 insect cells, baculovirus co-infection
Description: Selected compounds were tested for CDK1/cyclin B, CDK2/cyclin E, CDK5/p25, CDK7/cyclin H and CDK9/cyclin T inhibitory activity to determine the basic relationships between their structure and the inhibitory activity. Cdk/cyclin complexes were expressed in Sf9 cells co-infected with appropriate baculoviral construct. The cells were harvested 70 hours post infection in lysis buffer (50 mM Tris pH 7.4, 150 mM NaCl, 5 mM EDTA, 20 mM NaF, 1% Tween 20, protease inhibitors) for 30 min on ice and the soluble fraction was recovered by centrifugation at 14.000 g for […]. The protein extract was stored at −80° C. until use. The final point test system for kinase activity measurement was used to carry out experiments on the kinetics under linear conditions. […] ATP and tested compound in a final volume of 20 μl, all in reaction buffer: 50 mM Hepes pH 7.4, 10 mM MgCl2, 5 mM EGTA, 10 mM 2-glycerolphosphate, 1 mM NaF, 1 mM DTT and protease inhibitors. After 30 min, the incubations were stopped by adding 5% H3PO4 and then the proteins were separated by phosphocellulose binding. The measurement of kinase inhibition employed the digital imaging analyzer BAS 1800. The kinase activity was expressed as a percentage of maximum activity and the IC50 value was determined by graphic analysis. The kinase activity is expressed as a percentage of maximum activity (FIG. 1).

[3] = tested on: HOS (human osteogenic sarcoma); assay: Calcein AM cytotoxicity assay, HOS; assay type: cell-based; details: Homo sapiens, read-out: Cytotoxic activity IC50 (μM) HOS
From the text: as §1

Which “drug concentration causing fragmentation of PARP-1, permissive versus restrictive temperature” value (p53 in RPMI-8226 cells; RPMI-8226 cells) does the source give for `CCC(CO)Nc1nc(NCc2cccc(OC)c2O)c2ncn(C(C)C)c2n1` (racemic) [Compound 128, (RS)-2-({6-[(2-hydroxy-3-methoxybenzyl)amino]-9-isopropyl-9-H-purin-2-yl}amino)butan-1-ol] here?
Its value is “about two-fold lower drug concentrations”.

What about the “level of wild-type p53 protein” value (p53 in RPMI-8226 cells; RPMI-8226 cells at permissive (30° C.) temperature) of the same molecule?
Its value is “caused accumulation of wild-type p53 protein”.

What about the “level of mutant p53” value (p53 in RPMI-8226 cells; RPMI-8226 cells at restrictive (37° C.) temperature) of the same molecule?
Its value is “did not change the levels of mutant p53”.

And the “expression of anti-apoptotic protein Mcl-1” value (p53 in RPMI-8226 cells; RPMI-8226 cells, 30° C. versus restrictive temperature)?
Its value is “suppressed more efficiently at 30 °C”.

What about the IC50 [1] of the same molecule?
The IC50 was 15.5 µM.

What about the “expression of p53, p21^Waf1 and Mcl-1” value ([2]; MCF7, 24 h, concentration dependent, immunoblotting) of the same molecule?
Its value is “accumulation of tumor suppressor protein p53, expression of p53-regulated CDK inhibitor p21^Waf1 and downregulation of antiapoptotic protein Mcl-1”.

What about the “time after treatment at which enhanced level of p21^WAF1 protein was observed” value ([2]; MCF-7 cells) of the same molecule?
Its value is 12 h.

What about the “time at which induction of p53 protein was apparent” value ([2]; MCF-7 cells) of the same molecule?
The value was 4 h.

What about the “inhibition of kinase activity (FIG. 1)” value (CDK2/cyclin E; CDK2/cyclin E) of the same molecule?
The value was “inhibition of the CDK2/cyclin E kinase activity”.

What about the IC50 (CDK2/cyclin E; kinase inhibitory activity, 15 μM ATP, histone substrate) of the same molecule?
Its IC50 is 0.07 µM.

What about the IC50 [3] of the same molecule?
The IC50 was 5.9 µM.
